Results published in patent US8609723B2 (Beijing Dingguochangsheng Biotech., Co., Ltd., priority 2008, dated 2013).

What was measured:
male ICR mice [1] = assay: Tail suspension test in mice; type: in vivo; settings: curcumin 10 mg/kg, Days 3 and 7 after administration, vs control group
Experimental: The tail suspension test was carried out for each of these groups on Days 3, 7 and 14 after administration, except that such experiment was not performed for the curcumin group on Day 14. Tails of the mice were taped on a special iron stand at 1 cm from the tips, whilst keeping the mice staying at a height of 50 cm from ground. Performance of the mice was observed within 6 min, and the accumulative immobile time within the last 4 min was recoded for each mouse.

male ICR mice [2] = assay: Forced swimming test of mice; type: in vivo; settings: curcumin 10 mg/kg, Days 3 and 7 after administration
Experimental: The mice were forced to swim on Days 3, 7 and 14 after administration, except that such experiment was not performed for the curcumin group on Day 14.
Twenty four hours before the formal test, the mice were placed into a round glass container (height: 25 cm, diameter: 10 cm) filled with water (depth: 10 cm) with a temperature of 24±1° C., and forced to conduct swim training for 15 min. Twenty four hours later, the mice were placed into the round glass container filled with water (depth: 10 cm) again and forced to swim for 6 min. The accumulative immobile time within the last 4 min was observed and recorded for each mouse. The immobile time is intended to mean the period within which the mouse stops to struggle, floats in the water and keeps immobile, or only makes a few slight movements that are necessary to keep its head floating on the surface of water.

[3] = test system: 5-HT, NA, DA and metabolites thereof in hippocampus; assay: Detection of monoamine and metabolites thereof in brains of mice; type: in vivo; settings: 10 mg/kg
Experimental: Hippocampus was collected immediately on ice, weighed, put into an Eppendorf tube and kept in refrigeratory at −80° C. To each 100 mg brain tissue, 200 μl ice-cooled Solution A (0.4 mol/L HCLO4) was added. The mixture was homogenized ultrasonically in a ice bath, kept in dark at 4° C. for 60 min, and centrifuged for 20 min (12,000 rpm, 4° C.). […] The mixture was vortexed thoroughly for 10 min, kept at 4° C. in dark for 60 min, and centrifuged again for 20 min (12,000 rpm, 4° C.). The supernatant was collected and measured for the content of monoamine. The contents of 5-HT, NA, DA, 5-HIAA and DOPAC in brain tissue were determined by High Effective Liquid Phase Electrochemistry. […] The contents of monoamine and metabolites thereof in brain tissue were shown as ng/g wet tissue weight.

[4] = background statement; cited from earlier work
S-180 sarcoma cells = assay: Antitumor experiment of tumor S-180-bearing mice; type: in vivo; settings: 5-FU administered daily, 7 days
Excerpt: During the experiment, the mice were inoculated with S-180 sarcoma cells (×10^7) in armpits. […] Seven days later, the mice were sacrificed by decollation. The tumors were removed, and the mice and the tumors were weighed separately.

HCT116 cells = assay: Antitumor experiment of tumor HCT116-bearing mice; type: in vivo; settings: 5-FU administered daily, 7 days
Excerpt: During the experiment, the mice were inoculated with HCT116 cells (×10^7) in armpits. […] Seven days later, the mice were sacrificed by decollation. The tumors were removed, and the mice and the tumors were weighed separately.

S-180 cells = assay: Effect on apoptosis of tumor cells, cell cycle by flow cytometry; type: in vivo, mice; settings: sarcoma cell cycle, S-180 tumor fluid, 7 days
Excerpt: During the experiment, the mice were inoculated with S-180 cells (×10^7) in armpits. Seven days later, the mice were sacrificed by decollation and the tumors were removed. Tumor fluid was collected from tumors, and used for determining cell cycle by flow cytometry after ethanol fixation.

[5] = test system: chronically stressed rats; assay: Measurement of body temperature of chronically stressed rats; type: in vivo; settings: imipramine 10 mg/kg intraperitoneally daily for 21 days, chronic stress
Excerpt: (§1) The rats in the normal control group were raised normally under a condition without any stimulation except for weighing body weight, measuring body temperature, and subjected to sugar test. All of other groups were subjected to stimulations of same type and same strength. During the experiment, different types of stimulations were applied in an unpredictable manner, and the same type of stimulation was enhanced each time.
(§2) The stress protocol was shown as follows: horizontally shaking at a high speed for 45 min; nipping tails (1 cm from the tail root): 1 min; depriving of water for 24 h; forbidding moving for 1.5 h; fasting for 24 h; stimulating with ice water (water temperature: 10° C.) for 5 min; electric shocking (1 mA, time course: is, 1 shock/min) the bottoms of feet for 30 min; changing cages and raising separately for 24 h; forbidding moving for 2 h; nipping tails (1 cm from the root of tail) for 1 min; depriving of water for 24 h; horizontally shaking at a high speed for 1.5 h; fasting for 24 h; nipping tails (1 cm from the tail root): 1 min; electric shocking (1 mA, time course: 1 s, 1 shock/min) the bottoms of feet for 40 min; stimulating with ice water for 5 min; changing cages and raising separately for 24 h; horizontally shaking at a high speed for 60 min; electric shocking (1 mA, time course: 1 s, 1 shock/min) the bottoms of feet for 50 min; depriving of water for 24 h; forbidding moving for 2.5 h; and 24 h social isolation.
The front part of a digital thermometer was coated with liquid paraffin, and then inserted into the anus of a rat with a depth of approximately 1 cm. The temperature was read twice accordingly and averaged.

[6] = test system: chronically stressed rats; assay: Sugar water test of rats (chronic stress model); type: in vivo; settings: imipramine 10 mg/kg, table title says (%), the values are: sugar water preference
Excerpt: as §1
as §2, with “The chronic stress course was 20 days in total, once per day, from 9:00 AM to 2:00 PM. The” for “The”
Before this experiment, animals were trained to adapt to drink sugar water in a to quite room. Two bottles were placed simultaneously into each cage. For the first 24 h, these two bottles were both filled with 1% sugar water; and for the next 24 h, one of them was filled with 1% sugar water and the other was filled with pure water. Then after 23-hour water deprivation, the animals were tested for basic sugar water/pure water consumption. One bottle of 1% sugar water and one bottle of pure water were provided to each rat simultaneously. One hour later, the two bottles were weighed, and the total liquid consumption, sugar water consumption, pure water consumption, and the sugar water preference=sugar water consumption/total liquid consumption×100% were calculated, respectively. The experiment was performed after continuous administration of curcumin for 14 days.

[7] = test system: chronically stressed rats; assay: Forced swimming test of rats (chronic stress model); type: in vivo; settings: imipramine 10 mg/kg intraperitoneally daily for 21 days
Excerpt: as §1
as §2, with “The chronic stress course was 20 days in total, once per day, from 9:00 AM to 2:00 PM. The” for “The”
Please see FIG. 7. 24 hours before the formal test, rats were placed into a round glass container (height: 40 cm, diameter: 18 cm) filled with water (depth: 23 cm) with a temperature of 24±1° C., and forced to conduct swim training for 15 min. […] The accumulative immobile time within the last 4 min was observed and recorded for each rat. The immobile time is intended to mean the period within which the rat stops to struggle, floats in the water and keeps immobile, or only makes a few slight movements that are necessary to keep its head floating on the surface of water.

serum corticosterone = assay: Determination of the content of serum corticosterone (chronic stress model); type: in vivo; settings: stressed rats, imipramine 10 mg/kg daily, day after 21-day stress
Excerpt: as §1
as §2, with “The chronic stress course was 20 days in total, once per day, from 9:00 AM to 2:00 PM. The” for “The”
In this experiment, the content of serum corticosterone was measured by a competitive method, with its mechanism shown as follow: antigens in samples and enzyme-labeled antigens compete to bind antibodies in a solid phase. The more antigens exist in samples, the less enzyme-labeled antigens bind to the solid phase, thereby resulting in a fainter coloration.
On the next day after the end of the 21-day stress period, rats were sacrificed by decollation, and 5˜10 ml whole blood was collected. A portion of the collected whole blood was kept at room temperature for 20 min, followed by centrifugation at 1000 rpm for 10 min. Serum was then separated and stored at −80° C. The serum corticosterone detection kit was used for such detection.

[8] = first line of group (Day 3 presumed)
[9] = second line of group (Day 7 presumed)

COc1cc(/C=C/C(=O)CC(=O)/C=C/c2ccc(O)c(OC)c2)ccc1O [Curcumin, curcumin, reference compound]
reduction of tail suspension accumulative immobile time (male ICR mice [1]): no significant difference
reduction of accumulative immobile time in the forced swimming test (male ICR mice [2]): did not significantly reduce
Hippocampus 5-HIAA [3, 8]: 175.7 ± 13.8 ng/g
Hippocampus 5-HIAA/5-HT [3, 8]: 0.32 ± 0.03
Hippocampus 5-HT [3, 8]: 541.2 ± 31.8 ng/g
Hippocampus DOPAC [3, 8]: 12.4 ± 1.2 ng/g
Hippocampus Dopamine [3, 8]: 19.1 ± 3.6 ng/g
Hippocampus Noradrenaline [3, 8]: 245.6 ± 12.2 ng/g
Hippocampus 5-HIAA [3, 9]: 179.2 ± 14.9 ng/g
Hippocampus 5-HIAA/5-HT [3, 9]: 0.33 ± 0.03
Hippocampus 5-HT [3, 9]: 534.6 ± 28.9 ng/g
Hippocampus DOPAC [3, 9]: 11.9 ± 1.8 ng/g
Hippocampus Dopamine [3, 9]: 18.8 ± 5.4 ng/g
Hippocampus Noradrenaline [3, 9]: 246.6 ± 11.2 ng/g
half life [4]: approximately 1 hour

O=c1[nH]cc(F)c(=O)[nH]1 [Example 5-FU, 5-FU, reference compound]
inhibitory rate of tumors (S-180 sarcoma cells): 55.8%
inhibitory rate of tumors (HCT116 cells): 52.8%
APO % (apoptosis level of tumor cells) (S-180 cells): 29.1%
G1 % (S-180 cells): 35.1%
G2 % (S-180 cells): 11.7%
S % (S-180 cells): 53.2%

CN(C)CCCN1c2ccccc2CCc2ccccc21 [Imipramine, imipramine, reference compound]
Body temperature after stress [5]: 36.34 ± 0.083 °C
Sugar water volume after stress [6]: 67.5 ± 5%
Sugar water volume before stress [6]: 74.8 ± 7.8%
reduced the accumulative immobile time of the forced swimming test [7]: 40.5%
serum corticosterone (serum corticosterone): 137.0 ± 15.3 nmol/L
